Measured values from ChEMBL document CHEMBL5291721, “A preclinical secondary pharmacology resource illuminates target-adverse drug reaction associations of marketed drugs” (Nat Commun, 2023).

How the values were obtained:
[1] = target: T1, 5-hydroxytryptamine receptor 1A (Homo sapiens, UniProt P08908); assay type: functional, cell-based
T1 sequence (P08908 whole entry): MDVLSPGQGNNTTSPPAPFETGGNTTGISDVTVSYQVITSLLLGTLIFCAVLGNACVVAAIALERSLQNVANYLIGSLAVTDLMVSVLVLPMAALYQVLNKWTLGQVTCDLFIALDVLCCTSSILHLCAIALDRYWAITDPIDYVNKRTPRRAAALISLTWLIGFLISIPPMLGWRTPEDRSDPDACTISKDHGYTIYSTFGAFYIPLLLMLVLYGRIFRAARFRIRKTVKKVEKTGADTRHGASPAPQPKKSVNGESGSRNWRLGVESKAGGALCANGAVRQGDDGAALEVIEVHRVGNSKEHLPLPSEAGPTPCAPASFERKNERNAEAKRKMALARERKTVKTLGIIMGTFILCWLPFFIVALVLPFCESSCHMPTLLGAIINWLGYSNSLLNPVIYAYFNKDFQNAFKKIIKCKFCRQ

[2] = target: T2, Muscarinic acetylcholine receptor M1 (Homo sapiens, UniProt P11229); assay type: functional, cell-based
T2 sequence (P11229 whole entry): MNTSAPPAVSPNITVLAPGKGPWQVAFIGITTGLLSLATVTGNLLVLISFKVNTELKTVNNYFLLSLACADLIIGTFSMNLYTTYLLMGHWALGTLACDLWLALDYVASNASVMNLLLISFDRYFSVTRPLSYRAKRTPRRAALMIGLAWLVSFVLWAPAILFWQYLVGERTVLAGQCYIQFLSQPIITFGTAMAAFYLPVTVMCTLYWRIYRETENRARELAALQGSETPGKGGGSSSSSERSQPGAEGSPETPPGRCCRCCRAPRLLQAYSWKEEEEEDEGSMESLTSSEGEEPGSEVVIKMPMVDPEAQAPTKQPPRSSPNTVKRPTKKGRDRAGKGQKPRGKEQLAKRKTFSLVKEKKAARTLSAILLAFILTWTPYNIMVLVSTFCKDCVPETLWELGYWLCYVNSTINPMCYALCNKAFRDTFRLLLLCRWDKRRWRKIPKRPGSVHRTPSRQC

[3] = target: T3, Muscarinic acetylcholine receptor M2 (Homo sapiens, UniProt P08172); assay type: functional, cell-based
T3 sequence (P08172 whole entry): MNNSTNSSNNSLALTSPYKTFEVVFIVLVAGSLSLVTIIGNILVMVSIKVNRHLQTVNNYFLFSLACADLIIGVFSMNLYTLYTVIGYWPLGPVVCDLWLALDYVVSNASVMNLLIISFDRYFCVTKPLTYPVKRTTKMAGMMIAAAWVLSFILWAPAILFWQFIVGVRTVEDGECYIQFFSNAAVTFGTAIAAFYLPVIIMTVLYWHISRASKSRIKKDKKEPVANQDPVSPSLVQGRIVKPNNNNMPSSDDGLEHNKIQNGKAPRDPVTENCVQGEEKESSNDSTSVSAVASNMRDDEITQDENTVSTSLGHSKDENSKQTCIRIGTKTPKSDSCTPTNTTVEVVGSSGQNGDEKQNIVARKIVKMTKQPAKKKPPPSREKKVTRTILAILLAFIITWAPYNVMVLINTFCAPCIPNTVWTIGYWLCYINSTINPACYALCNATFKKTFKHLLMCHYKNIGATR

[4] = target: Sodium-dependent dopamine transporter (Homo sapiens, UniProt Q01959)
D(1A) dopamine receptor = D(1A) dopamine receptor (Homo sapiens, UniProt P21728); assay type: functional, cell-based
[5] = target: T4, Gamma-aminobutyric acid receptor subunit alpha-1 (Rattus norvegicus, UniProt P62813); assay type: functional
[6] = target: 5-hydroxytryptamine receptor 2B (Homo sapiens, UniProt P41595); assay type: functional, cell-based
Histamine H2 receptor = Histamine H2 receptor (Homo sapiens, UniProt P25021); assay type: functional, cell-based
[7] = target: T5, Alpha-2A adrenergic receptor (Homo sapiens, UniProt P08913); assay type: functional, cell-based
T5 sequence (P08913 whole entry): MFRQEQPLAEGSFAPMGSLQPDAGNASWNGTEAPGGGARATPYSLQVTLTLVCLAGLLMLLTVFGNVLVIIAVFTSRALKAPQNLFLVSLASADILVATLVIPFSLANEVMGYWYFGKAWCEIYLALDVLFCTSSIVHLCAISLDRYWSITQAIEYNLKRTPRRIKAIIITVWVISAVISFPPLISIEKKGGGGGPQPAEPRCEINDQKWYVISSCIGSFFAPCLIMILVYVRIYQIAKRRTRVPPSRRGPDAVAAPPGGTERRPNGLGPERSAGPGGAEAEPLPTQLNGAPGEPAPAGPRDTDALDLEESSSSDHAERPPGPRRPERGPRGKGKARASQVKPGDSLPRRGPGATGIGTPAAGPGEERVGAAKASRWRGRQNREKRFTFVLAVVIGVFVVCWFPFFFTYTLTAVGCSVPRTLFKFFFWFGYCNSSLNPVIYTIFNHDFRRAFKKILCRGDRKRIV

[8] = target: Delta-type opioid receptor (Homo sapiens, UniProt P41143)
[9] = target: T4, Gamma-aminobutyric acid receptor subunit alpha-1
[10] = target: T2, Muscarinic acetylcholine receptor M1; assay type: functional, cell-based; remark: listed apart in the source
[11] = target: T3, Muscarinic acetylcholine receptor M2; assay type: functional, cell-based; remark: listed apart in the source
[12] = target: cGMP-inhibited 3',5'-cyclic phosphodiesterase 3A (Homo sapiens, UniProt Q14432); assay type: functional
Also: assay procedure not described here.

T4 sequence (P62813 whole entry): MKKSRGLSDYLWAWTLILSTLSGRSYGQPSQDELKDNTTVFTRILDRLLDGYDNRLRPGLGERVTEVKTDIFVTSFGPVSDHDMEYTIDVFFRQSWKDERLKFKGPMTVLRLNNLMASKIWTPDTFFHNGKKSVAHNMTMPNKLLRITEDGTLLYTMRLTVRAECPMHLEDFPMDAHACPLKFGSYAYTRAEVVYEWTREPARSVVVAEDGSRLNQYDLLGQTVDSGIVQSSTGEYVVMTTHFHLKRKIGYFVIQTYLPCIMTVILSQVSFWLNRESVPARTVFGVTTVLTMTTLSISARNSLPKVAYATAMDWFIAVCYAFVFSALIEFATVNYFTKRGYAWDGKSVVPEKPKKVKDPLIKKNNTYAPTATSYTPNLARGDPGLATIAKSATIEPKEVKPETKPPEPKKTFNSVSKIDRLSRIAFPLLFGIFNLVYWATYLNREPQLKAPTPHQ
Sequence of 5-hydroxytryptamine receptor 2B (P41595 whole entry): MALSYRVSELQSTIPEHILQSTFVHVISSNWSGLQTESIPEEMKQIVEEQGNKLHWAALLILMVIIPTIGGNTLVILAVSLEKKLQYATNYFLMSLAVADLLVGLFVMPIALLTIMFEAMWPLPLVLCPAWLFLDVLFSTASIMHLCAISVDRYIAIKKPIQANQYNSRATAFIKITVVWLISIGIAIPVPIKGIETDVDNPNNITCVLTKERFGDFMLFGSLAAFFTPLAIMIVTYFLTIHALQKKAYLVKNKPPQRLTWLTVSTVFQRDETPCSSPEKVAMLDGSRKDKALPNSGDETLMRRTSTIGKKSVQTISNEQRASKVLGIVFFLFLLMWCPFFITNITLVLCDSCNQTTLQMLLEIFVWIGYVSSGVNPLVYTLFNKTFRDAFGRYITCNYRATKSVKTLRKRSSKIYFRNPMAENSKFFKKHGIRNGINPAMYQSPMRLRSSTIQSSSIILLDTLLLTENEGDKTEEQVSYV
Sequence of Delta-type opioid receptor (P41143 whole entry): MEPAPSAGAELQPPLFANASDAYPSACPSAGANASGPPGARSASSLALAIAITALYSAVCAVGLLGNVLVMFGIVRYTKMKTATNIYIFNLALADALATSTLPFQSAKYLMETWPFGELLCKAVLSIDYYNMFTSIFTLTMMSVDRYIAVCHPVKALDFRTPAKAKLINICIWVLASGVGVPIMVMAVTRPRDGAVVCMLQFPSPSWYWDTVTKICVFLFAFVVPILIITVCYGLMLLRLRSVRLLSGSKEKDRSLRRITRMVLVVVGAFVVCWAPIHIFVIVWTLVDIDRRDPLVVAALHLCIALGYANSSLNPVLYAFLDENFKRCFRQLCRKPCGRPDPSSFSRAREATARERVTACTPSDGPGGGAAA
Sequence of cGMP-inhibited 3',5'-cyclic phosphodiesterase 3A (Q14432 whole entry): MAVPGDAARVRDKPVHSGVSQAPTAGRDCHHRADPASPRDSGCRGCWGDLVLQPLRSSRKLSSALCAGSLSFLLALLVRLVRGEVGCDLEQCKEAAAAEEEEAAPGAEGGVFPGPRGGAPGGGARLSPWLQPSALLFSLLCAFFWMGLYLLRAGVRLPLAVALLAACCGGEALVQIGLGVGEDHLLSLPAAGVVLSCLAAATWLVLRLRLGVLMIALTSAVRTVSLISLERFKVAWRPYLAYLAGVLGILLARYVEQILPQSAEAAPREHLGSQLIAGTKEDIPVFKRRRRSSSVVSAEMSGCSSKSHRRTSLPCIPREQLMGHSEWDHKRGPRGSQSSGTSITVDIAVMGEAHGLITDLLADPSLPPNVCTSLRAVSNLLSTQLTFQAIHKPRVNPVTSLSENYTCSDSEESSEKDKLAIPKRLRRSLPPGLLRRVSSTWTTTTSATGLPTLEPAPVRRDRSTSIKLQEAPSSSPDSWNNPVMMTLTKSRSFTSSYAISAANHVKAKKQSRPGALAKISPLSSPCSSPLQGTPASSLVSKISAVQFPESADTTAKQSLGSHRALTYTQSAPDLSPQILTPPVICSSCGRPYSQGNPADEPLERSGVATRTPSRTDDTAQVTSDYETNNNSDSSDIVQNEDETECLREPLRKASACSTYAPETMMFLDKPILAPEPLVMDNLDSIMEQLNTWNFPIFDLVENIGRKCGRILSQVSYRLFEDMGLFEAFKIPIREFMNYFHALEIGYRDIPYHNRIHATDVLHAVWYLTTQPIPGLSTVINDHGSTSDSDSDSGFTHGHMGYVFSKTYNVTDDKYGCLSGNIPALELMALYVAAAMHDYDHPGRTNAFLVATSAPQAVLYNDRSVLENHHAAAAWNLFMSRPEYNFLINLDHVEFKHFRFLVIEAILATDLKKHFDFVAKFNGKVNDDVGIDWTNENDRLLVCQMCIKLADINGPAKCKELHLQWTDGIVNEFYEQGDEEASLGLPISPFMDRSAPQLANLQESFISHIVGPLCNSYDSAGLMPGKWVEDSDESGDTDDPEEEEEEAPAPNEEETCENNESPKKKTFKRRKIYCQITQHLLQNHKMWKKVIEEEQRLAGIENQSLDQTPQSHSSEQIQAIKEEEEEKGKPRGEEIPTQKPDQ
Sequence of Histamine H2 receptor (P25021 whole entry): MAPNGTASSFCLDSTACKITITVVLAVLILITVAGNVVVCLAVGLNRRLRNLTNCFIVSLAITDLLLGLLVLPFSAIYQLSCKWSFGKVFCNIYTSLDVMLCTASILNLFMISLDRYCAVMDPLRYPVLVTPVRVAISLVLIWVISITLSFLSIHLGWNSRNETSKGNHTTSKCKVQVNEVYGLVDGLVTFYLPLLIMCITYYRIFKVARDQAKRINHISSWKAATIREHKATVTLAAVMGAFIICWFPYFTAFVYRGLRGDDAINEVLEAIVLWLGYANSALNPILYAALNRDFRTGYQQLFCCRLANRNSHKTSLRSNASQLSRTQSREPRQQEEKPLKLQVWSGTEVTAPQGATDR
Sequence of D(1A) dopamine receptor (P21728 whole entry): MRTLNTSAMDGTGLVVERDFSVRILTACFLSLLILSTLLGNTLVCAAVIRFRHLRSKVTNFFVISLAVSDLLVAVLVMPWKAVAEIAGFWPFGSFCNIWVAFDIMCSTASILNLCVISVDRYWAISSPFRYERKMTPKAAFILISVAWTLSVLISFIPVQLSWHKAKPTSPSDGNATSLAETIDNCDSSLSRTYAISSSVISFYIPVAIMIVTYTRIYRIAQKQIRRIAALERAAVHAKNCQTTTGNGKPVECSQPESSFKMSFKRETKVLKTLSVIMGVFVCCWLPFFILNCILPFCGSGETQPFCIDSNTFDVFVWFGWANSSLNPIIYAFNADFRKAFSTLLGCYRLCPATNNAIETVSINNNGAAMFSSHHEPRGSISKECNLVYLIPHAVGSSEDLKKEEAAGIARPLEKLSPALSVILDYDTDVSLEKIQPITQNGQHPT
Sequence of Sodium-dependent dopamine transporter (Q01959 whole entry): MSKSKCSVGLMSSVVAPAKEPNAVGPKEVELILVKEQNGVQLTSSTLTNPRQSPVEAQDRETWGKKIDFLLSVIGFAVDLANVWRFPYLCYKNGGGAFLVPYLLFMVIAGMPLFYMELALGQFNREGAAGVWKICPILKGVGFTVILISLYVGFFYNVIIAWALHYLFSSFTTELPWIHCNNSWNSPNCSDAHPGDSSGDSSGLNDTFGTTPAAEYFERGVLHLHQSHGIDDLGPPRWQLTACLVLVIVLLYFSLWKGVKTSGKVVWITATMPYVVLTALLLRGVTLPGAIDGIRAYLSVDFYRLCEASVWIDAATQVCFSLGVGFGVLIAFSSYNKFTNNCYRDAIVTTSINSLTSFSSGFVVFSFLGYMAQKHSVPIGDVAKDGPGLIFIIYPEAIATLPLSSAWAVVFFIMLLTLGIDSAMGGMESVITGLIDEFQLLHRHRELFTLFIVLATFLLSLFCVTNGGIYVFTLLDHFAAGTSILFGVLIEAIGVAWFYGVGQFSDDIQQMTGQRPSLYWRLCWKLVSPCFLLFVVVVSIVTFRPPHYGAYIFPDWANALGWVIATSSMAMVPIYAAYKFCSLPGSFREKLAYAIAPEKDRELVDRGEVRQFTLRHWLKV

SMILES: O=C(O)CCn1c2c(c3ccccc31)C[C@H](NS(=O)(=O)c1ccc(F)cc1)CC2 [RAMATROBAN]
- AC50 [1]: > 10 µM
- AC50 [2]: > 30 µM
- AC50 [3]: > 10 µM
- AC50 [4]: > 30 µM
- AC50 (D(1A) dopamine receptor): > 30 µM
- AC50 [5]: > 10 µM
- AC50 [6]: > 10 µM
- AC50 (Histamine H2 receptor): > 30 µM
- AC50 [7]: > 10 µM
- AC50 [8]: > 30 µM
- AC50 [9]: > 30 µM
- AC50 [10]: > 30 µM
- AC50 [11]: > 10 µM
- AC50 [12]: > 30 µM
